{"source": "patent US5866397A", "about": "“Human protein tyrosine phosphatase OB protein” (Merck & Co., Inc., priority 1997, dated 1999)", "molecules": {"B1": {"name": "PTPε (Mus musculus) (protein)", "chain": "RFRKQRKAVVSSNDKKMPNGILEEQEQQRVMLLSRSPSGPKKFFPIPVEHLEEEIRVRSADDCKRFREEFNSLPSGHIQGTFELANKEENREKNRYPNILPNDHCRVILSQVDGIPCSDYINASYIDGYKEKNKFIAAQGPKQETVNDFWRMVWEQRSATIVMLTNLKERKEEKCYQYWPDQGCWTYGNIRVCVEDCVVLVDYTIRKFCIHPQLPDSCKAPRLVSQLHFTSWPDFGVPFTPIGMLKFLKKVKTLNPSHAGPIVVHCSAGVGRTGTFIVIDAMMDMIHSEQKVDVFEFVSRIRNQRPQMVQTDVQYTFIYQALLEYYLYGDTELDVSSLERHLQTLHSTATHFDKIGLEEEFRKLTNVRIMKENMRTGNLPANMKKARVIQIIPYDFNRVILSMKRGQEFTDYINASFIDGYRQKDYFMATQGPLAHTVEDFWRMVWEWKSHTIVMLTEVQEREQDKCYQYWPTEGSVTHGDITIEIKSDTLSEAISVRDFLVTFKQPLARQEEQVRMVRQFHFHGWPEVGIPAEGKGMIDLIAAVQKQQQQTGNHPITVHCSAGAGRTGTFIALSNILERVKAEGLLDVFQAVKSLRLQRPHMVQTLEQYEFCYKVVQDFIDIFSDYANFK"}}, "key": {"rat osteoclasts": {"system": "rat osteoclasts", "assay": "cells", "assay_type": "cell-based"}, "PTP-OB": {"molecular_target": "T1, PTP-OB (Homo sapiens, UniProt Q13332)", "T1 construct": "we expressed the cytoplasmic domain of PTP-OB and PTPε in bacteria as a GST-fusion protein; made in house; host or cells: bacteria (vector pGEX-2TX, Pharmacia)", "T1 sequence (Q13332 1303-1928 isoform Q13332-3 C1437R/N1685K)": "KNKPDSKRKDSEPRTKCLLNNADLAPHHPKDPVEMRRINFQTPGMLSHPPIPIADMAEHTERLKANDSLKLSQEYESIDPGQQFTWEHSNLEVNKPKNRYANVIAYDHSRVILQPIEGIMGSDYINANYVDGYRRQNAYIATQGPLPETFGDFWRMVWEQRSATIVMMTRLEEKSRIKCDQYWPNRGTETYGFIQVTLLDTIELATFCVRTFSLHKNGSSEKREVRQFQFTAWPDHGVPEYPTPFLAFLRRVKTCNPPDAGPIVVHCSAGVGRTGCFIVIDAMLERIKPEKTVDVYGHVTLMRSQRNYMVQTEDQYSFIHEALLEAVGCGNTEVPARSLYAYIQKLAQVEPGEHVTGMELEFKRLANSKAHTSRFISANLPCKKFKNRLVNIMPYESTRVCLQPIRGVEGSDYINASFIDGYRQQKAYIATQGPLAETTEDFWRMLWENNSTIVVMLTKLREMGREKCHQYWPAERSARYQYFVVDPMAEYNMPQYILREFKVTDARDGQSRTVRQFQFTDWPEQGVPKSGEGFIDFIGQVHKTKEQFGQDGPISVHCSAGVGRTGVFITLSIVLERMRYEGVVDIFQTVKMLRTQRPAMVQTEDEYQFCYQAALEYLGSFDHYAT", "assay": "PTP enzymatic assay with recombinant GST-PTP-OB fusion protein (FDP substrate)", "assay_type": "biochemical", "conditions": "pH 5.65, FIG. 8"}, "MB1.8 cells": {"system": "MB1.8 cells", "assay": "Osteoblast proliferation (thymidine incorporation) in mouse calvaria derived MB1.8 cells", "assay_type": "cell-based", "conditions": "micromolar concentrations"}, "[1]": {"system": "mononucleated TRAP positive cells", "assay_type": "cell-based, mouse"}, "[2]": {"system": "multinucleated TRAP positive osteoclast-like cells", "assay": "cells", "assay_type": "cell-based, mouse"}, "PTPε": {"molecular_target": "PTPε (Mus musculus, UniProt P49446)", "assay": "PTP enzymatic assay with recombinant GST-PTPε fusion protein (FDP substrate)"}, "bone cells / osteoblasts": {"system": "bone cells / osteoblasts", "conditions": "cited from earlier work"}, "[3]": {"system": "osteoblasts and bone marrow cells"}, "bone resorption": {"system": "bone resorption", "conditions": "organ cultures; Krieger and Tashjian; cited from earlier work"}, "[4]": {"substrate": "O=C1OC2(c3ccc(OP(=O)(O)O)cc3Oc3cc(OP(=O)(O)O)ccc32)c2ccccc21", "assay": "purified protein, by the assay type", "conditions": "other: FDP as substrate of GST-PTPε; pH 5.65"}}, "note": "“Also recorded” adds a separate entry of the source. Read-outs that look alike come from different tables or passages of the source.", "data": [{"molecule": "NCCCC(O)(P(=O)(O)O)P(=O)(O)O", "note": "[alendronate]", "values": [{"measurement": "inhibition at 10 µM", "setting": "rat osteoclasts; Rattus norvegicus, Osteoclast, 24 h, read-out: reduction of the number of resorption pits", "result": 80, "unit": "%"}, {"measurement": "IC50", "setting": "PTP-OB", "result": 200, "unit": "nM"}, {"measurement": "thymidine incorporation (mitogenesis) of quiescent osteoblasts", "setting": "MB1.8 cells", "result": "stimulated thymidine incorporation"}, {"measurement": "development of mononucleated TRAP positive cells", "setting": "[1]", "result": "did not block"}, {"measurement": "inhibition of formation of multinucleated TRAP positive cells", "setting": "[2]", "result": "completely inhibited"}]}, {"molecule": "CC(O)(P(=O)(O)O)P(=O)(O)O", "note": "[etidronate]", "values": [{"measurement": "thymidine incorporation (mitogenesis) of quiescent osteoblasts", "setting": "MB1.8 cells", "result": "stimulated thymidine incorporation"}, {"measurement": "IC50", "setting": "PTPε", "result": "~400", "unit": "nM"}]}, {"molecule": "COC1=C2C[C@@H](C)C[C@H](OC)[C@H](O)[C@@H](C)/C=C(\\C)[C@H](OC(N)=O)[C@@H](OC)/C=C\\C=C(/C)C(=O)NC(=CC1=O)C2=O", "note": "[geldanamycin]", "values": [{"measurement": "appearance/development of mononuclear TRAP positive cells", "setting": "[1]", "result": "completely blocked; also recorded: inhibited the development of mononuclear TRAP positive cells"}, {"measurement": "inhibition of formation of multinucleated TRAP positive cells", "setting": "[2]", "result": "complete inhibition"}, {"measurement": "inhibition of osteoclast formation, in words", "setting": "[2]", "result": "potent inhibitor"}, {"measurement": "IC50", "setting": "[2]; Mus musculus, Osteoclast-like, read-out: IC50, osteoclast formation", "result": 0.05, "unit": "µg/mL"}]}, {"molecule": "[O]=[V]([O-])([O-])[O-]", "note": "[orthovanadate]", "values": [{"measurement": "inhibition of bone resorption, in words", "setting": "rat osteoclasts", "result": "potent inhibitors"}, {"measurement": "reduction of the number of resorption pits", "setting": "rat osteoclasts; osteoclasts on bone slices, 1440 min, 10 µM", "result": 80, "unit": "%"}, {"measurement": "IC50", "setting": "rat osteoclasts; read-out: IC50, bone resorption", "result": 2000, "unit": "nM"}, {"measurement": "bone cell / osteoblast proliferation", "setting": "bone cells / osteoblasts", "result": "can stimulate osteoblast proliferation; also recorded: stimulated cell proliferation; also recorded: stimulation of cell proliferation"}, {"measurement": "thymidine incorporation (mitogenesis) of quiescent osteoblasts", "setting": "MB1.8 cells", "result": "stimulated thymidine incorporation"}, {"measurement": "development of mononucleated TRAP positive cells", "setting": "[1]", "result": "did not block"}, {"measurement": "formation of mononucleated TRAP positive cells", "setting": "[1]", "result": "produced mononucleated TRAP positive cells"}, {"measurement": "effects on the co-cultured osteoblasts", "setting": "[3]", "result": "no ill effects"}, {"measurement": "toxicity for osteoblasts or bone marrow cells", "setting": "[3]", "result": "no apparent toxicity"}, {"measurement": "stimulation of bone resorption induced by PTH", "setting": "bone resorption", "result": "inhibited"}, {"measurement": "additional effect when added at earlier days of co-culture", "setting": "[2]", "result": "small additional effect"}, {"measurement": "inhibition of formation of multinucleated TRAP positive cells", "setting": "[2]", "result": "completely inhibited"}, {"measurement": "inhibition of formation of multinucleated TRAP positive cells, in words", "setting": "[2]", "result": "completely inhibited"}, {"measurement": "inhibition of formation of multinucleated osteoclastic cells when added at any time up to day six", "setting": "[2]", "result": "≥ 90", "unit": "%"}, {"measurement": "inhibition of formation of the fused TRAP positive cells, in words", "setting": "[2]", "result": "markedly inhibited"}, {"measurement": "block of formation of multinucleated TRAP positive cells when added at day six of co-culture", "setting": "[2]; bone marrow/osteoblast co-culture, 1440 min", "result": 80, "unit": "%"}, {"measurement": "IC50", "setting": "[2]; read-out: IC50, formation of multinucleated TRAP positive cells", "result": 2000, "unit": "nM"}]}, {"molecule": "B1", "values": [{"measurement": "Km", "setting": "[4]", "result": 70, "unit": "µM"}]}]}
